In patent US20040110687A1, “Methods and compositions for treating gastrointestinal toxicity induced by cytoablative therapy” (priority 2002, published 2004):
Read-outs that look alike come from different tables or passages of the source. Marks after values point to notes of the source that are not given here.

Assays:
[1] = tested on: normal, non-tumor bearing mice; format: in vivo
Description: A second study was performed to determine whether RDP58 also limits 5-FU induced diarrhea. Normal, non-tumor bearing mice were treated with 100 mg/kg 5-FU daily for two consecutive days and were concurrently given 10 mg/kg RDP58 orally or water only. […] All ten animals in the control group had diarrhea compared to only three of ten RDP58 treated animals.

[2] = tested on: mice bearing CT-26 tumors; assay: CPT-11 efficacy and treatment related mortality with or without RDP58 in tumor model; format: in vivo; conditions: for reduction in tumor weight: CPT-11 100 mg/kg qdx3, three regimens
Description: To determine whether RDP58 altered the efficacy of CPT-11 therapy, mice bearing CT-26 tumors were treated with three regimens of CPT-11 at 100 mg/kg qdx3 and given 5.0 mg/kg RDP58 orally.

[3] = tested on: normal, non-tumor bearing mice; assay: CPT-11-induced gastrointestinal toxicity and mortality, RDP58 dose finding study
Description: In a dose finding study, normal, non-tumor bearing mice were injected intraperitoneally with 200 mg/kg CPT-11 once a day for three consecutive days and concurrently given 0, 2.5, 5.0 or 10 mg/kg RDP58 orally.

[4] = CPT-11 dose escalation (LD50) with or without oral RDP58; format: in vivo, mice; conditions: mouse, in vivo, intraperitoneal; without RDP58, as restated in Example 7
Description: (§1) To determine whether concurrent oral RDP58 treatment can increase the maximum dose of CPT-11 without a concomitant increase in mortality, normal non-tumor bearing mice were injected qdx3 with 0, 100, 200, 300, or 400 mg/kg CPT-11 injected i.p. qdx3 on Days 0, 1 and 2. RDP58 was given orally at 10 mg/kg in the drinking water starting on Day 3. Mice were monitored for body weight loss, incidence of diarrhea and mortality until end of study on Day 12.

[5] = tested on: normal non-tumor bearing mice; assay: as above; format: in vivo
Description: as §1

[6] = tested on: tumor bearing mice; assay: MTD vs 2xMTD CPT-11 with or without RDP58: mortality and tumor response
[7] = as above; conditions: mouse, in vivo
[8] = CPT-11 200 mg/kg/dose i.p. once a day for three days, RDP58 none
[9] = CPT-11 100 mg/kg qdx3 with 5.0 mg/kg RDP58 orally
[10] = RDP58 10 mg/kg orally with 5-FU 100 mg/kg
[11] = RDP58 10 mg/kg/day orally with 5-FU 100 mg/kg/dose
[12] = RDP58 2.5 mg/kg/day orally with CPT-11 200 mg/kg/dose
[13] = RDP58 5 mg/kg/day orally with CPT-11 200 mg/kg/dose
[14] = RDP58 10 mg/kg/day orally with CPT-11 200 mg/kg/dose
[15] = RDP58 orally 10 mg/kg in the drinking water

## O=c1[nH]cc(F)c(=O)[nH]1 [5-FU, 5-Fluorouracil, reference compound]
[1]; 5-FU 100 mg/kg/dose daily for two days, RDP58 none
  Toxicity (%) Mortality: 90(9/10) %
[1]; mouse, in vivo, 12 days
  survival rate: 10%

## CCc1c2c(nc3ccc(OC(=O)N4CCC(N5CCCCC5)CC4)cc13)-c1cc3c(c(=O)n1C2)COC(=O)[C@]3(O)CC [CPT-11, irinotecan, reference compound]
[2]; RDP58 untreated
  reduction in tumor weight: 61%
[2]; control group, CPT-11 100 mg/kg qdx3 without RDP58
  mortality: 40%
[3]; [8]
  Maximum weight loss: 29.4 ± 4.3
  Toxicity (%) Diarrhea: 97 (29/30)^b %
  Toxicity (%) Mortality: 73 (22/30) %
[3]; control group, CPT-11 200 mg/kg without RDP58
  mice died from CPT-11 treatment: 22 of 30
[4]
  LD50 at 12 days: ~465 mg/kg
[5]; CPT-11 i.p. qdx3 alone, until Day 12
  LD50: approximately 450 mg/kg/total dose
[6]; 2×MTD CPT-11 (1200 mg/kg)
  animals that survived the complete treatment regimen: 50%
[6]; CPT-11 at MTD 600 mg/kg
  animals died from the CPT-11: No animals in this treatment group died
[7]
  MTD at 12 days: 600 mg/kg

## Arg-nL-nL-nL-Arg-nL-nL-nL-Gly-Tyr [RDP58]
[2]; with 5.0 mg/kg RDP58 orally
  reduction in tumor weight: 55%
[2]; [9]
  survival: significantly increased
  treatment related deaths: No treatment related deaths
[1]; [10]
  animals that had diarrhea: three of ten
  total body weight loss: significant reduction
[1]; [11]
  Maximum weight loss: 13.9 ± 3.8b
  Toxicity (%) Diarrhea: 30(3/10) %
  Toxicity (%) Mortality: 10(1/10) %
[1]; twelve days after 5-FU administration, RDP58 10 mg/kg orally
  survival rate: 90%
[3]; 5.0 and 10.0 mg/kg RDP58 with CPT-11 200 mg/kg
  maximum total body weight lost compared to RDP58 untreated mice: reduction
[3]; RDP58 0, 2.5, 5.0 or 10 mg/kg orally with CPT-11 200 mg/kg
  survival twelve days after the first injection of CPT-11: dose dependent increase
[3]; [12]
  Maximum weight loss: 27.8 ± 3.7
  Toxicity (%) Diarrhea: 67 (10/15)^b %
  Toxicity (%) Mortality: 60 (9/15) %
[3]; [13]
  Maximum weight loss: 25.6 ± 4.4^a
  Toxicity (%) Diarrhea: 40 (12/30)^b %
  Toxicity (%) Mortality: 23 (7/30) %
[3]; [14]
  Maximum weight loss: 24.6 ± 1.9^a
  Toxicity (%) Diarrhea: 33 (5/15)^b %
  Toxicity (%) Mortality: 7 (1/15) %
[3]; RDP58 group with CPT-11 200 mg/kg
  mice died from CPT-11 treatment: one of fifteen
[3]; mice receiving RDP58 with CPT-11 200 mg/kg
  appearance of diarrhea: dose dependent decrease
[5]; 10 mg/kg RDP58, as restated in Example 7
  LD50 of CPT-11 with RDP58: ~720 mg/kg total dose
[5]; [15]
  LD50 of CPT-11 with administration of RDP58: approximately 725 mg/kg/total dose
  increase of CPT-11 LD50 by a factor: about 1.6 ×
[6]; 2×MTD CPT-11 + 10 mg/ml RDP58
  animals that survived the complete treatment regimen: 83%
